PubChem BioAssay (NCI)
Several values for one entry are separate records, joined by “and”; a condition that tells them apart may be missing. Identical values can stand only once.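 Tested at 5 concentrations; 48 h exposure; 96-well plates; endpoints linearly interpolated, else capped at highest concentration. GI50: concentration for 50% inhibition of growth. At the TGI there is no net growth.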

Legend:
Assay in all cases: inhibition of tumour cell growth, NCI panel, 48 h
OVCAR-4 ovarian = system: OVCAR-4 ovarian
DU-145 prostate = system: DU-145 prostate
HL-60(TB) leukemia = system: HL-60(TB) leukemia
A498 renal = system: A498 renal
NCI-H460 lung = system: NCI-H460 lung
786-0 renal = system: 786-0 renal
MDA-MB-435 = system: MDA-MB-435
CAKI-1 renal = system: CAKI-1 renal
SK-MEL-28 melanoma = system: SK-MEL-28 melanoma
OVCAR-8 ovarian = system: OVCAR-8 ovarian

| Structure (SMILES) | TGI (OVCAR-4 ovarian) | TGI (DU-145 prostate) | TGI (HL-60(TB) leukemia) | TGI (A498 renal) | TGI (NCI-H460 lung) | TGI (786-0 renal) | TGI (MDA-MB-435) | TGI (CAKI-1 renal) | TGI (SK-MEL-28 melanoma) | GI50 (OVCAR-4 ovarian) | GI50 (DU-145 prostate) | GI50 (HL-60(TB) leukemia) [µM] | GI50 (A498 renal) [µM] | GI50 (NCI-H460 lung) [µM] | GI50 (OVCAR-8 ovarian) | TGI (OVCAR-8 ovarian) | GI50 (786-0 renal) | GI50 (MDA-MB-435) [µM] | GI50 (CAKI-1 renal) | GI50 (SK-MEL-28 melanoma) |
| --- | --- | --- | --- | --- | --- | --- | --- | --- | --- | --- | --- | --- | --- | --- | --- | --- | --- | --- | --- | --- |
| COc1cc(OC)c(/C=C\c2ccnc3ccccc23)c(OC)c1 | 16.5 µM | 17.2 µM | 0.963 µM | 9.87 µM | 14.2 µM | 17.8 µM | 1.78 µM | 22.2 µM | 17.9 µM | – | – | – | – | – | – | – | – | – | – | – |
| CCCCCCCCN(CCCCCCCC)CCCCCCNc1cc(OC)cc2cccnc12 | 19.7 µM | 4.52 µM | 37.3 µM | 30.5 µM | 21.6 µM | 28.4 µM | 12.8 µM | 32.5 µM | 27.1 µM | 5.62 µM | 2.1 µM | 16.4 | 15.6 | 8.27 | 3.39 µM | 12.4 µM | 14.6 µM | 3.59 | 12.1 µM | 13.6 µM |
| COc1cc2nc(SCC(=O)Nc3cc(OC)c(OC)c(OC)c3)n(Cc3ccccc3)c(=O)c2cc1OC | 5.56 µM | > 100 µM | > 100 µM | 32.5 µM | > 100 µM | 17.6 µM | > 100 µM | 28.8 µM | 11.4 µM | 2.11 µM | 7.44 µM | > 100 | 1.75 | 6.72 | 3.46 µM | 34.9 µM | 3.51 µM | 4.91 | 3.05 µM | 3.02 µM |
| COc1ccc(C(SCC(N)C(=O)O)(c2ccccc2)c2ccccc2)cc1 (configuration not stated) | > 100 µM | 0.7 µM | – | > 84.6 µM | > 41.9 µM | – | – | > 100 µM | > 100 µM | 29.7 µM | 0.272 µM | 0.136 | 20.8 | 0.23 | 0.482 µM | > 100 µM | 0.209 µM | 0.0306 | 0.457 µM | 3.12 µM |
| O=C1c2ccccc2S(=O)(=O)N1CSC(=S)N1CCCCC1 | > 100 µM | > 100 µM | > 100 µM | > 100 µM | > 100 µM | > 100 µM | > 100 µM | > 100 µM | > 100 µM | > 100 µM | > 100 µM | 0.0329 | > 100 | 5.5 | > 100 µM | > 100 µM | > 100 µM | > 100 | > 100 µM | > 100 µM |
| NC1CCC(Nc2nc(NCc3ccc(-c4cccs4)nc3)c3ncn(C4CCCC4)c3n2)CC1 (configuration not stated) | 1.06 µM | 4.42 µM | 0.0644 µM | 0.225 µM | 2.19 µM | 1.12 µM | 1.08 µM | 9.92 µM | 0.117 µM | 0.0326 µM | 0.0933 µM | 0.0206 | 0.0725 | 0.0913 | 0.0504 µM | 12.9 µM | 0.122 µM | 0.0282 | 1.62 µM | 0.0296 µM |
| CN(Cc1cc(Br)cc(Br)c1O)Cc1cc(Br)cc(Br)c1O | 18.9 µM | 22.2 µM | 10.9 µM | 18.7 µM | 13.2 µM | 14.6 µM | 22.6 µM | 12.5 µM | 24.6 µM | 1.79 µM | 5.48 µM | 1.08 | 4.08 | 0.557 | 1.94 µM | 16.1 µM | 1.42 µM | 3.79 | 0.612 µM | 10.9 µM |
| Cc1ccc(-c2cc3c(SCC(=O)Nc4cc(C(F)(F)F)ccc4Cl)nccn3n2)cc1 | > 100 µM | > 100 µM | > 100 µM | > 100 µM | > 100 µM | 87.2 µM | > 100 µM | > 100 µM | > 100 µM | 2.86 µM | > 100 µM | > 100 | > 100 | 81.6 | 29.8 µM | > 100 µM | 10.1 µM | > 100 | > 100 µM | > 100 µM |
| O=[N+]([O-])c1ccc(Sc2ncnc3nc[nH]c23)c2nonc12 | 16.9 µM | > 100 µM | 6.03 µM | 20.5 µM | 35.2 µM | 5.16 µM | 17.1 µM | 33.7 µM | 18.5 µM | 0.811 µM | 5.16 µM | 2.8 | 8.46 | 9.73 | 7.23 µM | 28.9 µM | 1.74 µM | 3.04 | 5.97 µM | 5.79 µM |
| O=CNc1ncn[nH]1 | > 100 µM | > 100 µM | > 100 µM | > 100 µM | > 100 µM | > 100 µM | > 100 µM | > 100 µM | > 100 µM | – | – | – | – | – | – | > 100 µM | – | – | – | – |
| O=C1c2nsnc2C(=O)c2c(F)c(F)c(F)c(F)c21 | – | 2.63 µM | 2.73 µM | 3.57 µM | 2.34 µM | 3.01 µM | 2.14 µM | – | 1.76 µM | – | 1.32 µM | 0.591 | 1.6 | 0.758 | 2.8 µM | 72.7 µM | 1.63 µM | 0.846 | – | 0.594 µM |
| CC1=CC(=C(c2ccc(N)cc2)c2ccc(N)cc2)C=CC1=N | 14.3 µM and > 55.2 µM and 71.6 µM | 15.2 µM and > 40.3 µM and 14.2 µM | 3.51 µM and > 21.6 µM | > 27.4 µM and > 100 µM and 32.2 µM | 7.3 µM and 28.9 µM and 15.8 µM | 6.53 µM and 26.1 µM and 31.7 µM | 10.2 µM and > 44.8 µM and 15.6 µM | 13.9 µM and 51.7 µM and 35.6 µM | 7.89 µM and 36.8 µM and 19.6 µM | 2.51 µM and 5.01 µM | 2.07 µM and 3.92 µM | 0.482 | 2.2 | 0.838 | 0.759 µM and 1.51 µM | 34.5 µM and 31.4 µM and 12.4 µM | 1.64 µM and 8.26 µM | 0.969 | 3.35 µM and 8.97 µM | 0.789 µM and 4.57 µM |
| O=C(c1ccccc1)c1ccc(Oc2ccc([N+](=O)[O-])cc2[N+](=O)[O-])cc1 | 87.4 µM | 12.8 µM | 5.89 µM | 24.8 µM | 33.3 µM | 15.9 µM | 3.98 µM | 5.52 µM | 36.7 µM | 4.18 µM | 3.33 µM | 2.19 | 11 | 8.62 | 3.39 µM | 14.4 µM | 3.46 µM | 1.82 | 2.29 µM | 7.03 µM |
